Assay results: the NIST ThermoML archive (doi:10.1021/je400122k)

Settings: Liquid; for speed of sound: Pulse-echo method; for mass density: Vibrating tube method

CCCCCCCCCCCCCCCC(=O)OC [methyl hexadecanoate]
Settings	mass density [kg/m3]	speed of sound [m/s]
313.15 K, 100 kPa	–	1317.2
313.15 K, 101.3 kPa	849.9	–
313.15 K, 10000 kPa	856.3	1365.4
313.15 K, 20000 kPa	861.8	1411.5
313.15 K, 30000 kPa	867.9	1454.4
313.15 K, 40000 kPa	872.1	1494.8
313.15 K, 50000 kPa	878.4	–
323.15 K, 100 kPa	–	1283.4
323.15 K, 101.3 kPa	842.5	–
323.15 K, 10000 kPa	849	1333.7
323.15 K, 20000 kPa	855.5	1381.1
323.15 K, 30000 kPa	861.4	1425.2
323.15 K, 40000 kPa	866.8	1467.4
323.15 K, 50000 kPa	871.8	1506.9
333.15 K, 101.3 kPa	835.2	–
333.15 K, 10000 kPa	842	–
333.15 K, 20000 kPa	848.7	–
333.15 K, 30000 kPa	854.9	–
333.15 K, 40000 kPa	860.4	–
333.15 K, 50000 kPa	866.7	–
343.15 K, 100 kPa	–	1215.3
343.15 K, 101.3 kPa	827.8	–
343.15 K, 10000 kPa	835.1	1270.1
343.15 K, 20000 kPa	842	1319.7
343.15 K, 30000 kPa	848.5	1366.8
343.15 K, 40000 kPa	854.4	1410.5
343.15 K, 50000 kPa	859.6	1450.6
353.15 K, 101.3 kPa	820.4	–
353.15 K, 10000 kPa	827.7	–
353.15 K, 20000 kPa	835.1	–
353.15 K, 30000 kPa	841.7	–
353.15 K, 40000 kPa	847.9	–
353.15 K, 50000 kPa	853.8	–
363.15 K, 100 kPa	–	1150.1
363.15 K, 101.3 kPa	812.8	–
363.15 K, 10000 kPa	820.3	1208.9
363.15 K, 20000 kPa	828	1262.5
363.15 K, 30000 kPa	835	1311.1
363.15 K, 40000 kPa	843.8	1355.7
363.15 K, 50000 kPa	848.6	1400.9
373.15 K, 101.3 kPa	804.6	–
373.15 K, 10000 kPa	813.8	–
373.15 K, 20000 kPa	821.7	–
373.15 K, 30000 kPa	829	–
373.15 K, 40000 kPa	835.7	–
373.15 K, 50000 kPa	841.9	–
383.15 K, 100 kPa	–	1087.2
383.15 K, 101.3 kPa	797.4	–
383.15 K, 10000 kPa	806.8	1150.3
383.15 K, 20000 kPa	815.1	1207.5
383.15 K, 30000 kPa	822.7	1259.3
383.15 K, 40000 kPa	829.6	1310.8
383.15 K, 50000 kPa	836.5	1358.3
393.15 K, 100 kPa	–	1056.9
393.15 K, 10000 kPa	–	1121.2
393.15 K, 20000 kPa	–	1180.4
393.15 K, 30000 kPa	–	1234.2
393.15 K, 40000 kPa	–	1284.7
393.15 K, 50000 kPa	–	1334

CCCCCCCCCCCCCC(=O)OC [methyl tetradecanoate]
Settings	mass density [kg/m3]	speed of sound [m/s]
303.15 K, 100 kPa	–	1335.8
303.15 K, 101.3 kPa	859.7	–
303.15 K, 10000 kPa	866.3	1382.9
303.15 K, 20000 kPa	872.4	1426.9
303.15 K, 30000 kPa	878.2	1468.1
303.15 K, 40000 kPa	883.7	1507.6
303.15 K, 50000 kPa	888.9	1544.9
303.15 K, 60000 kPa	893.8	1580.2
303.15 K, 70000 kPa	898.5	1614.2
313.15 K, 101.3 kPa	851.6	–
313.15 K, 10000 kPa	858.2	–
313.15 K, 20000 kPa	864.7	–
313.15 K, 30000 kPa	870.7	–
313.15 K, 40000 kPa	876.4	–
313.15 K, 50000 kPa	881.7	–
313.15 K, 60000 kPa	886.8	–
313.15 K, 70000 kPa	891.7	–
313.15 K, 80000 kPa	896.3	–
323.15 K, 100 kPa	–	1264
323.15 K, 101.3 kPa	843.3	–
323.15 K, 10000 kPa	850.5	1316.4
323.15 K, 20000 kPa	857.2	1364.8
323.15 K, 30000 kPa	863.5	1409.6
323.15 K, 40000 kPa	869.4	1451.9
323.15 K, 50000 kPa	874.9	1492.5
323.15 K, 60000 kPa	880.2	1530.5
323.15 K, 70000 kPa	885.2	1566.8
323.15 K, 80000 kPa	889.9	1601.2
333.15 K, 101.3 kPa	835.2	–
333.15 K, 10000 kPa	843	–
333.15 K, 20000 kPa	850.1	–
333.15 K, 30000 kPa	856.6	–
333.15 K, 40000 kPa	862.7	–
333.15 K, 50000 kPa	868.4	–
333.15 K, 60000 kPa	873.8	–
333.15 K, 70000 kPa	879	–
333.15 K, 80000 kPa	883.9	–
343.15 K, 100 kPa	–	1195.7
343.15 K, 101.3 kPa	827.9	–
343.15 K, 10000 kPa	835.7	1251.2
343.15 K, 20000 kPa	843.1	1302.9
343.15 K, 30000 kPa	849.8	1350.8
343.15 K, 40000 kPa	856.2	1396
343.15 K, 50000 kPa	862.1	1437.4
343.15 K, 60000 kPa	867.7	1477.5
343.15 K, 70000 kPa	873	1515
343.15 K, 80000 kPa	878	1550.8
353.15 K, 101.3 kPa	820.2	–
353.15 K, 10000 kPa	828.5	–
353.15 K, 20000 kPa	836.1	–
353.15 K, 30000 kPa	843.2	–
353.15 K, 40000 kPa	849.8	–
353.15 K, 50000 kPa	855.9	–
353.15 K, 60000 kPa	861.6	–
353.15 K, 70000 kPa	867.1	–
353.15 K, 80000 kPa	872.3	–
363.15 K, 100 kPa	–	1130.9
363.15 K, 101.3 kPa	812.6	–
363.15 K, 10000 kPa	821.2	1190.4
363.15 K, 20000 kPa	829.2	1245.2
363.15 K, 30000 kPa	836.6	1295.9
363.15 K, 40000 kPa	843.4	1342.5
363.15 K, 50000 kPa	849.7	1385.7
363.15 K, 60000 kPa	855.6	1426.7
363.15 K, 70000 kPa	861.2	1465.5
363.15 K, 80000 kPa	866.6	1502.6
373.15 K, 101.3 kPa	804.6	–
373.15 K, 10000 kPa	813.9	–
373.15 K, 20000 kPa	822.2	–
373.15 K, 30000 kPa	829.9	–
373.15 K, 40000 kPa	836.9	–
373.15 K, 50000 kPa	843.5	–
373.15 K, 60000 kPa	849.6	–
373.15 K, 70000 kPa	855.3	–
373.15 K, 80000 kPa	860.8	–
383.15 K, 100 kPa	–	1066.7
383.15 K, 101.3 kPa	796.4	–
383.15 K, 10000 kPa	806.3	1131.3
383.15 K, 20000 kPa	815.1	1189.6
383.15 K, 30000 kPa	823	1242.9
383.15 K, 40000 kPa	830.3	1291.7
383.15 K, 50000 kPa	837.1	1338
383.15 K, 60000 kPa	843.4	1380.3
383.15 K, 70000 kPa	849.3	1420.4
383.15 K, 80000 kPa	854.9	1457.6
393.15 K, 100 kPa	–	1036.2
393.15 K, 101.3 kPa	788.5	–
393.15 K, 10000 kPa	798.6	1103.6
393.15 K, 20000 kPa	807.7	1163.5
393.15 K, 30000 kPa	815.9	1217.8
393.15 K, 40000 kPa	823.5	1267.7
393.15 K, 50000 kPa	830.5	1314.4
393.15 K, 60000 kPa	837	1357.8
393.15 K, 70000 kPa	843.1	1397.8
393.15 K, 80000 kPa	848.8	1436.8
